From PubChem BioAssay AID1845195 (Molecular Pharmacology Branch, DTP, NCI, 2023)
“And” between values parts separate entries of the source, which are not always exact repeats. Identical values can stand only once.

System: 156681-154-R-J1 tumor spheroid viability
Assay: Anticancer human tumor 156681-154-R-J1 patient-derived melanoma cell line growth inhibition
Conditions: spheroids with HUVEC and MSC; for viability, T/C: stronger effect = lower value
Summary of the method: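 Complex tumor spheroids combined malignant cells with endothelial cells and mesenchymal stem cells. DNA-damaging drugs and DNA repair inhibitors were tested alone and in combination, at half-log dilutions down from clinical Cmax (top 10 microM if Cmax unknown), 0.25% DMSO final.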

[1] = curve of first compound, second compound 1 µM
[2] = curve of first compound, second compound 3.16 µM
[3] = curve of first compound, second compound 10 µM
[4] = curve of first compound, second compound 31.6 µM
[5] = curve of first compound, second compound 100 µM
[6] = second compound 1 µM, first compound 0.0316 µM
[7] = second compound 1 µM, first compound 0.1 µM
[8] = second compound 1 µM, first compound 0.316 µM
[9] = second compound 1 µM, first compound 1 µM
[10] = second compound 1 µM, first compound 3.16 µM
[11] = second compound 1 µM, first compound 10 µM
[12] = second compound 3.16 µM, first compound 0.0316 µM
[13] = second compound 3.16 µM, first compound 0.1 µM
[14] = second compound 3.16 µM, first compound 0.316 µM
[15] = second compound 3.16 µM, first compound 1 µM
[16] = second compound 3.16 µM, first compound 3.16 µM
[17] = second compound 3.16 µM, first compound 10 µM
[18] = second compound 10 µM, first compound 0.0316 µM
[19] = second compound 10 µM, first compound 0.1 µM
[20] = second compound 10 µM, first compound 0.316 µM
[21] = second compound 10 µM, first compound 1 µM
[22] = second compound 10 µM, first compound 3.16 µM
[23] = second compound 10 µM, first compound 10 µM
[24] = second compound 31.6 µM, first compound 0.0316 µM
[25] = second compound 31.6 µM, first compound 0.1 µM
[26] = second compound 31.6 µM, first compound 0.316 µM
[27] = second compound 31.6 µM, first compound 1 µM
[28] = second compound 31.6 µM, first compound 3.16 µM
[29] = second compound 31.6 µM, first compound 10 µM
[30] = second compound 100 µM, first compound 0.0316 µM
[31] = second compound 100 µM, first compound 0.1 µM
[32] = second compound 100 µM, first compound 0.316 µM
[33] = second compound 100 µM, first compound 1 µM
[34] = second compound 100 µM, first compound 3.16 µM
[35] = second compound 100 µM, first compound 10 µM
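Note: spheroids exposed to compounds for 7 days before readout.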
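Throughout, for viability, T/C: percent of vehicle control viability where 100% = DMSO-treated spheroids.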

## CC1COCCN1c1cc(-c2ccnn2C)c2ccnc(-c3ccn[nH]3)c2n1 (configuration not stated) + Cn1nnc2c(C(N)=O)ncn2c1=O
[1]
  IC50: 90.7 nM
[2]
  IC50: 89.8 nM
[3]
  IC50: 44.3 nM
[4]
  IC50: < 31.6 nM
[5]
  IC50: < 31.6 nM
[6]
  viability, T/C: 66.7%
[7]
  viability, T/C: 48.5%
[8]
  viability, T/C: 32.1%
[9]
  viability, T/C: 24.1%
[10]
  viability, T/C: 22.5%
[11]
  viability, T/C: 20.2%
[12]
  viability, T/C: 73.5%
[13]
  viability, T/C: 47.7%
[14]
  viability, T/C: 26.1%
[15]
  viability, T/C: 21.3%
[16]
  viability, T/C: 20.2%
[17]
  viability, T/C: 18%
[18]
  viability, T/C: 54.4%
[19]
  viability, T/C: 39.3%
[20]
  viability, T/C: 23.2%
[21]
  viability, T/C: 19.2%
[22]
  viability, T/C: 21.9%
[23]
  viability, T/C: 15.6%
[24]
  viability, T/C: 38%
[25]
  viability, T/C: 31.4%
[26]
  viability, T/C: 18.6%
[27]
  viability, T/C: 20.2%
[28]
  viability, T/C: 21.8%
[29]
  viability, T/C: 16.2%
[30]
  viability, T/C: 23.6%
[31]
  viability, T/C: 17.1%
[32]
  viability, T/C: 12.6%
[33]
  viability, T/C: 15.3%
[34]
  viability, T/C: 16%
[35]
  viability, T/C: 17%

## COc1cc(C)[nH]c(=O)c1CN1CCc2c(Cl)cc(C(OC)C3COC3)c(Cl)c2C1=O (configuration not stated) + Cn1nnc2c(C(N)=O)ncn2c1=O
[1]
  IC50: > 10000 nM
[2]
  IC50: > 10000 nM
[3]
  IC50: > 10000 nM
[4]
  IC50: > 10000 nM
[5]
  IC50: > 10000 nM
[6]
  viability, T/C: 115%
[7]
  viability, T/C: 103%
[8]
  viability, T/C: 116%
[9]
  viability, T/C: 115%
[10]
  viability, T/C: 81.2%
[11]
  viability, T/C: 88.5%
[12]
  viability, T/C: 107%
[13]
  viability, T/C: 144%
[14]
  viability, T/C: 90.7%
[15]
  viability, T/C: 74.9%
[16]
  viability, T/C: 127%
[17]
  viability, T/C: 130%
[18]
  viability, T/C: 84.5%
[19]
  viability, T/C: 81%
[20]
  viability, T/C: 77.7%
[21]
  viability, T/C: 75.2%
[22]
  viability, T/C: 98.7%
[23]
  viability, T/C: 67%
[24]
  viability, T/C: 70.2%
[25]
  viability, T/C: 56.7%
[26]
  viability, T/C: 60.4%
[27]
  viability, T/C: 58.4%
[28]
  viability, T/C: 54%
[29]
  viability, T/C: 65.7%
[30]
  viability, T/C: 45%
[31]
  viability, T/C: 66%
[32]
  viability, T/C: 51.7%
[33]
  viability, T/C: 62.9%
[34]
  viability, T/C: 68.7%
[35]
  viability, T/C: 61.4%

## [2H]c1nc(C)nc([2H])c1-c1cc(NC[C@@H](C)c2cccc3c(C(=O)NC)ccnc23)ncn1
Compound 0.0316 µM
  viability, T/C: 84.5% and 81.3% and 110%
Compound 0.1 µM
  viability, T/C: 98.4% and 80% and 94.7%
Compound 0.316 µM
  viability, T/C: 91.8% and 92.6% and 92.1%
Compound 1 µM
  viability, T/C: 86.1% and 87.3% and 89.5%
Compound 3.16 µM
  viability, T/C: 91.8% and 77.7% and 88.6%
Compound 10 µM
  viability, T/C: 86.8% and 70% and 99.2%
Curve of compound
  IC50: > 10000 nM
